# Results from EPA's ToxRefDB 2.
# Assays:
# dog = details: Chronic toxicity; beagle; Oral; Capsule; dose end: 12 month; group: systemic; systemic / clinical chemistry / urea nitrogen / urea + systemic / in life observation / clinical signs / altered breathing rate + systemic…
# mouse [1] = details: Carcinogenicity, swiss albino, Oral, Feed, dose end: 18 month, group: systemic
# mouse [2] = details: Carcinogenicity, cd1, Oral, Feed, dose end: 18 month, group: systemic
# rat [3] = details: Subchronic oral toxicity in rodents, fischer, Feed, dose end: 45 day, group: systemic
# rat [4] = details: Carcinogenicity; fischer; Oral; Feed; dose end: 2 year; group: systemic; systemic / in life observation / body weight / body weight
# mouse [5] = details: Carcinogenicity; b6c3f1; Oral; Feed; dose end: 2 year; group: systemic; systemic / in life observation / body weight / body weight
# mouse [6] = details: Subchronic oral toxicity in rodents, b6c3f1, Feed, dose end: 45 day, group: systemic, systemic / in life observation / mortality / mortality
# rat [7] = details: Carcinogenicity, fischer, Oral, Feed, dose end: 105 week, group: systemic
# rat [8] = details: Subchronic oral toxicity in rodents, Fischer, Feed, dose end: 13 week, group: systemic
# [9] = systemic / organ weight / kidney / absolute + systemic / organ weight / kidney / relative to body weight + systemic / organ weight / liver…
# [10] = systemic / pathology microscopic / liver / adenoma + systemic / pathology microscopic / liver / adenoma/carcinoma combined + systemic / …
# [11] = systemic / pathology microscopic / liver / adenoma/carcinoma combined + systemic / hematology / erythrocyte (rbc) count differential / …
# [12] = systemic / in life observation / body weight / body weight
# [13] = systemic / in life observation / body weight / body weight + systemic / in life observation / mortality / mortality
# [14] = systemic / pathology microscopic / kidney / hyperplasia + systemic / pathology microscopic / pancreas / hyperplasia
# [15] = systemic / pathology microscopic / kidney / hyperplasia + systemic / pathology microscopic / pancreas / hyperplasia + systemic / pathology …
# [16] = systemic / clinical chemistry / creatinine / creatinine + systemic / urinalysis / specific gravity/osmolality / specific gravity/osmolality…
# [17] = systemic / in life observation / body weight / body weight gain + systemic / in life observation / body weight / body weight + systemic / …
structure (smiles),measurement,setting,value
N#Cc1cc(Br)c(O)c(Br)c1 [Bromoxynil],LEL,dog,1.5 mg/kg/day
same,LOAEL,dog,1.5 mg/kg/day
same,NEL,dog,0.3 mg/kg/day
same,NOAEL,dog,0.3 mg/kg/day
same,LOAEL,mouse [1]; [9],> 13.3 mg/kg/day
same,NOAEL,mouse [1]; [9],≥ 13.3 mg/kg/day
same,NEL,mouse [1]; systemic / pathology microscopic / liver / adenoma + systemic / pathology microscopic / liver / carcinoma + systemic / organ weight / liver…,1.33 mg/kg/day
same,LEL,mouse [1]; systemic / pathology microscopic / liver / carcinoma + systemic / pathology microscopic / liver / hyperplasia,4 mg/kg/day
same,LOAEL,mouse [2]; [10],12 mg/kg/day
same,NOAEL,mouse [2]; [10],3.1 mg/kg/day
same,LEL,mouse [2]; [11],3.1 mg/kg/day
same,NEL,mouse [2]; [11],< 3.1 mg/kg/day
Cc1ccc(S(=O)(=O)NC(=O)NN2CCCCCC2)cc1 [Tolazamide],LEL,rat [3]; [12],1000 mg/kg/day
same,LOAEL,rat [3]; [12],1000 mg/kg/day
same,NEL,rat [3]; [13],500 mg/kg/day
same,NOAEL,rat [3]; [13],500 mg/kg/day
same,LEL,rat [4],250 mg/kg/day
same,LOAEL,rat [4],> 500 mg/kg/day
same,NEL,rat [4],< 250 mg/kg/day
same,NOAEL,rat [4],≥ 500 mg/kg/day
same,LEL,mouse [5],750 mg/kg/day
same,LOAEL,mouse [5],750 mg/kg/day
same,NEL,mouse [5],< 750 mg/kg/day
same,NOAEL,mouse [5],< 750 mg/kg/day
same,LEL,mouse [6],3750 mg/kg/day
same,LOAEL,mouse [6],> 7500 mg/kg/day
same,NEL,mouse [6],1800 mg/kg/day
same,NOAEL,mouse [6],≥ 7500 mg/kg/day
"OCC(CO)(CCBr)CCBr [2,2-Bis(bromoethyl)-1,3-propanediol]",LOAEL,rat [7]; [14],100 mg/kg/day
same,NOAEL,rat [7]; [14],< 100 mg/kg/day
same,LEL,rat [7]; [15],100 mg/kg/day
same,NEL,rat [7]; [15],< 100 mg/kg/day
same,LEL,rat [8]; [16],100 mg/kg/day
same,NEL,rat [8]; [16],< 100 mg/kg/day
same,LOAEL,rat [8]; [17],400 mg/kg/day
same,NOAEL,rat [8]; [17],200 mg/kg/day
